Assay results as given in PubChem BioAssay (NCI).
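Assay format: 96-well plates, 48-hour exposure. TGI: total growth inhibition.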

Legend:
Assay in all cases: inhibition of tumour cell growth, NCI panel, 48 h
OVCAR-5 ovarian = tested on: OVCAR-5 ovarian
COLO 205 colon = tested on: COLO 205 colon
HS 578T breast = tested on: HS 578T breast
SK-MEL-2 melanoma = tested on: SK-MEL-2 melanoma
SK-MEL-5 melanoma = tested on: SK-MEL-5 melanoma
M14 melanoma = tested on: M14 melanoma
SNB-75 CNS = tested on: SNB-75 CNS
MDA-N = tested on: MDA-N
786-0 renal = tested on: 786-0 renal
LOX IMVI melanoma = tested on: LOX IMVI melanoma
OVCAR-4 ovarian = tested on: OVCAR-4 ovarian
CCRF-CEM leukemia = tested on: CCRF-CEM leukemia
SNB-19 CNS = tested on: SNB-19 CNS
NCI-H23 lung = tested on: NCI-H23 lung
RXF 393 renal = tested on: RXF 393 renal
SK-MEL-28 melanoma = tested on: SK-MEL-28 melanoma
HOP-62 NSCLC = tested on: HOP-62 NSCLC
UACC-62 melanoma = tested on: UACC-62 melanoma
UACC-257 melanoma = tested on: UACC-257 melanoma
HT29 colon = tested on: HT29 colon
U251 CNS = tested on: U251 CNS
NCI-H460 lung = tested on: NCI-H460 lung
SF-539 CNS = tested on: SF-539 CNS
MDA-MB-231 breast = tested on: MDA-MB-231 breast
OVCAR-3 ovarian = tested on: OVCAR-3 ovarian
CAKI-1 renal = tested on: CAKI-1 renal
MALME-3M melanoma = tested on: MALME-3M melanoma
KM12 colon = tested on: KM12 colon
BT-549 breast = tested on: BT-549 breast
A498 renal = tested on: A498 renal
NCI/ADR-RES ovarian = tested on: NCI/ADR-RES ovarian
UO-31 renal = tested on: UO-31 renal
IGROV1 ovarian = tested on: IGROV1 ovarian
RPMI-8226 leukemia = tested on: RPMI-8226 leukemia
HOP-92 NSCLC = tested on: HOP-92 NSCLC
TK-10 renal = tested on: TK-10 renal
HCT-116 colon = tested on: HCT-116 colon
MOLT-4 leukemia = tested on: MOLT-4 leukemia
PC-3 prostate = tested on: PC-3 prostate
MCF7 breast = tested on: MCF7 breast
DU-145 prostate = tested on: DU-145 prostate
K-562 leukemia = tested on: K-562 leukemia
ACHN renal = tested on: ACHN renal
T-47D breast = tested on: T-47D breast
MDA-MB-435 = tested on: MDA-MB-435
A549 NSCLC = tested on: A549 NSCLC
SR leukemia = tested on: SR leukemia
SF-268 CNS = tested on: SF-268 CNS
OVCAR-8 ovarian = tested on: OVCAR-8 ovarian
HCT-15 colon = tested on: HCT-15 colon
SN12C renal = tested on: SN12C renal
SW-620 colon = tested on: SW-620 colon
SK-OV-3 ovarian = tested on: SK-OV-3 ovarian
SF-295 CNS = tested on: SF-295 CNS
NCI-H226 lung = tested on: NCI-H226 lung
EKVX NSCLC = tested on: EKVX NSCLC
HCC-2998 colon = tested on: HCC-2998 colon
NCI-H522 lung = tested on: NCI-H522 lung
HL-60(TB) leukemia = tested on: HL-60(TB) leukemia

Question: What does the source list for `CCOC(=O)[C@@]12C[C@](/C=C/OC)(O[Si](C)(C)C)[C@@]13c1cc(OC)c(OC)cc1CCN3C(=O)C2=O`?
Answer: TGI (OVCAR-5 ovarian): > 100 µM; TGI (COLO 205 colon): > 100 µM; TGI (HS 578T breast): > 100 µM; TGI (SK-MEL-2 melanoma): > 100 µM; TGI (SK-MEL-5 melanoma): > 100 µM; TGI (M14 melanoma): > 100 µM; TGI (SNB-75 CNS): > 100 µM; TGI (MDA-N): > 100 µM; TGI (786-0 renal): > 100 µM; TGI (LOX IMVI melanoma): > 100 µM; TGI (OVCAR-4 ovarian): > 100 µM; TGI (CCRF-CEM leukemia): > 100 µM; TGI (SNB-19 CNS): > 100 µM; TGI (NCI-H23 lung): > 100 µM; TGI (RXF 393 renal): > 100 µM; TGI (SK-MEL-28 melanoma): > 100 µM; TGI (HOP-62 NSCLC): > 100 µM; TGI (UACC-62 melanoma): > 100 µM; TGI (UACC-257 melanoma): > 100 µM; TGI (HT29 colon): > 100 µM; TGI (U251 CNS): > 100 µM; TGI (NCI-H460 lung): > 100 µM; TGI (SF-539 CNS): > 100 µM; TGI (MDA-MB-231 breast): > 100 µM; TGI (OVCAR-3 ovarian): > 100 µM; TGI (CAKI-1 renal): > 100 µM; TGI (MALME-3M melanoma): > 100 µM; TGI (KM12 colon): > 100 µM; TGI (BT-549 breast): > 100 µM; TGI (A498 renal): > 100 µM; TGI (NCI/ADR-RES ovarian): > 100 µM; TGI (UO-31 renal): > 100 µM; TGI (IGROV1 ovarian): > 100 µM; TGI (RPMI-8226 leukemia): > 100 µM; TGI (HOP-92 NSCLC): > 100 µM; TGI (TK-10 renal): > 100 µM; TGI (HCT-116 colon): > 100 µM; TGI (MOLT-4 leukemia): > 100 µM; TGI (PC-3 prostate): > 100 µM; TGI (MCF7 breast): > 100 µM; TGI (DU-145 prostate): > 100 µM; TGI (K-562 leukemia): > 100 µM; TGI (ACHN renal): > 100 µM; TGI (T-47D breast): > 100 µM; TGI (MDA-MB-435): > 100 µM; TGI (A549 NSCLC): > 100 µM; TGI (SR leukemia): > 100 µM; TGI (SF-268 CNS): > 100 µM; TGI (OVCAR-8 ovarian): > 100 µM; TGI (HCT-15 colon): > 100 µM; TGI (SN12C renal): > 100 µM; TGI (SW-620 colon): > 100 µM; TGI (SK-OV-3 ovarian): > 100 µM; TGI (SF-295 CNS): > 100 µM; TGI (NCI-H226 lung): > 100 µM; TGI (EKVX NSCLC): > 100 µM

Question: With `O=c1cc(NNc2cccc3ccccc23)[nH]c(=O)[nH]1` as the molecule, how does the TGI (OVCAR-5 ovarian) read?
Answer: Its TGI is 31.1 µM.

Question: What about the TGI (COLO 205 colon) of the same molecule?
Answer: Its TGI is 31.3 µM.

Question: What about the TGI (HS 578T breast) of the same molecule?
Answer: The TGI was 68.7 µM.

Question: What about the TGI (SK-MEL-2 melanoma) of the same molecule?
Answer: Its TGI is 28.4 µM.

Question: What about the TGI (SK-MEL-5 melanoma) of the same molecule?
Answer: The TGI was 29.7 µM.

Question: And the TGI (M14 melanoma)?
Answer: Its TGI is 29.8 µM.

Question: What about the TGI (SNB-75 CNS) of the same molecule?
Answer: The TGI was 31.4 µM.

Question: And the TGI (MDA-N)?
Answer: Its TGI is 24.4 µM.

Question: And the TGI (786-0 renal)?
Answer: The TGI was 18.6 µM.

Question: What about the TGI (LOX IMVI melanoma) of the same molecule?
Answer: The TGI was 26.7 µM.

Question: What about the TGI (OVCAR-4 ovarian) of the same molecule?
Answer: The TGI was 31.2 µM.

Question: What about the TGI (CCRF-CEM leukemia) of the same molecule?
Answer: Its TGI is 81.9 µM.

Question: What about the TGI (SNB-19 CNS) of the same molecule?
Answer: The TGI was 29 µM.

Question: What about the TGI (HCC-2998 colon) of the same molecule?
Answer: Its TGI is 35.6 µM.

Question: What about the TGI (NCI-H23 lung) of the same molecule?
Answer: Its TGI is 28.9 µM.

Question: What about the TGI (RXF 393 renal) of the same molecule?
Answer: Its TGI is 31.9 µM.

Question: And the TGI (SK-MEL-28 melanoma)?
Answer: The TGI was 33.3 µM.

Question: What about the TGI (HOP-62 NSCLC) of the same molecule?
Answer: The TGI was 30.9 µM.

Question: What about the TGI (UACC-62 melanoma) of the same molecule?
Answer: The TGI was 31.8 µM.

Question: And the TGI (UACC-257 melanoma)?
Answer: Its TGI is 29.4 µM.

Question: And the TGI (HT29 colon)?
Answer: The TGI was 31.9 µM.

Question: And the TGI (U251 CNS)?
Answer: The TGI was 28.3 µM.

Question: What about the TGI (NCI-H460 lung) of the same molecule?
Answer: The TGI was 43.5 µM.

Question: What about the TGI (SF-539 CNS) of the same molecule?
Answer: The TGI was 29 µM.

Question: And the TGI (NCI-H522 lung)?
Answer: The TGI was 28.7 µM.

Question: And the TGI (MDA-MB-231 breast)?
Answer: Its TGI is 26.2 µM.

Question: What about the TGI (OVCAR-3 ovarian) of the same molecule?
Answer: The TGI was 27.3 µM.

Question: And the TGI (CAKI-1 renal)?
Answer: The TGI was 28.5 µM.

Question: What about the TGI (MALME-3M melanoma) of the same molecule?
Answer: Its TGI is 31.8 µM.

Question: And the TGI (KM12 colon)?
Answer: Its TGI is 29.9 µM.

Question: What about the TGI (BT-549 breast) of the same molecule?
Answer: The TGI was 30.2 µM.

Question: What about the TGI (A498 renal) of the same molecule?
Answer: The TGI was 35.7 µM.

Question: And the TGI (NCI/ADR-RES ovarian)?
Answer: Its TGI is 40.9 µM.

Question: And the TGI (UO-31 renal)?
Answer: The TGI was 29.8 µM.

Question: What about the TGI (IGROV1 ovarian) of the same molecule?
Answer: Its TGI is 29.2 µM.

Question: And the TGI (RPMI-8226 leukemia)?
Answer: Its TGI is 33.3 µM.

Question: And the TGI (HOP-92 NSCLC)?
Answer: The TGI was 31.7 µM.

Question: What about the TGI (TK-10 renal) of the same molecule?
Answer: Its TGI is 33.8 µM.

Question: What about the TGI (HCT-116 colon) of the same molecule?
Answer: The TGI was 31.2 µM.

Question: What about the TGI (MOLT-4 leukemia) of the same molecule?
Answer: Its TGI is 56.8 µM.

Question: And the TGI (PC-3 prostate)?
Answer: The TGI was 27 µM.

Question: What about the TGI (MCF7 breast) of the same molecule?
Answer: Its TGI is 4.74 µM.

Question: And the TGI (DU-145 prostate)?
Answer: The TGI was 28.6 µM.

Question: What about the TGI (K-562 leukemia) of the same molecule?
Answer: The TGI was > 100 µM.

Question: What about the TGI (ACHN renal) of the same molecule?
Answer: Its TGI is 30.3 µM.

Question: And the TGI (T-47D breast)?
Answer: Its TGI is 29.6 µM.

Question: What about the TGI (MDA-MB-435) of the same molecule?
Answer: The TGI was 30.7 µM.

Question: What about the TGI (A549 NSCLC) of the same molecule?
Answer: The TGI was 33.4 µM.

Question: And the TGI (SF-268 CNS)?
Answer: Its TGI is 31 µM.

Question: And the TGI (OVCAR-8 ovarian)?
Answer: Its TGI is 36.8 µM.

Question: And the TGI (HCT-15 colon)?
Answer: Its TGI is 24.8 µM.

Question: What about the TGI (SN12C renal) of the same molecule?
Answer: Its TGI is 29.9 µM.

Question: And the TGI (SW-620 colon)?
Answer: The TGI was 40 µM.

Question: What about the TGI (SK-OV-3 ovarian) of the same molecule?
Answer: Its TGI is 88.6 µM.

Question: What about the TGI (HL-60(TB) leukemia) of the same molecule?
Answer: Its TGI is 7.99 µM.

Question: What about the TGI (SF-295 CNS) of the same molecule?
Answer: Its TGI is 31.4 µM.

Question: And the TGI (NCI-H226 lung)?
Answer: The TGI was 27.9 µM.

Question: What about the TGI (EKVX NSCLC) of the same molecule?
Answer: The TGI was 27.7 µM.
